experiment: Lymphatic transport assay in mesenteric lymph-duct cannulated rats; type: in vivo, rat; conditions: as E2 but dose 1 mg/rat; class symbols
Method: In order to assess the lymphatic transport of disclosed lipid prodrugs in rats, the mesenteric lymph ducts of the rats used in this study were cannulated to allow continual collection of mesenteric lymph. Lipid formulations containing the compound of interest were then administered to the animals, lymph was collected, and drug concentrations in the lymph samples were quantified.
Lipid-based formulations of the compounds of the invention or control compounds were prepared as previously described (Trevaskis, N. L. et al., Pharmaceutical Research, 2005, 22(11), 1863-1870, WO 2016/023082, and WO 2017/041139, hereby incorporated by reference.
In brief, either 1 or 2 mg of test prodrug, 40 mg oleic acid and 25 mg Tween 80 were mixed in a glass vial and incubated at 37° C. for 12-18 h to equilibrate. An aqueous phase consisting of 5.6 ml phosphate buffered saline (PBS, pH 7.4) was subsequently added to the lipid phase (MPA was dissolved in PBS for the preparation of MPA containing formulations) and the formulation emulsified by ultrasonication with a Misonix XL 2020 ultrasonic processor (Misonix, Farmingdale, NY, USA) equipped with a 3.2-mm microprobe tip running at 30% of the maximal amplitude of 240 μm and a frequency of 20 kHz for 2 min at room temperature. Doses for administering to more than one animal can be prepared in one batch by suitably increasing the quantities given above. Drug/prodrug concentrations in all formulations were verified using HPLC-MS.
Male Sprague-Dawley (SD) rats were selected for the lymphatic transport studies. Rats (typically 240-320 g) were maintained on a standard diet and fasted overnight with free access to water prior to experiments.
Anesthetized rats were placed on a heated pad at 37° C. and cannulas inserted into the duodenum (for formulation administration and rehydration), mesenteric lymph duct (for lymph collection), and carotid artery (in cases where blood collection was conducted). Post-surgery, rats were re-hydrated for 0.5 h via intraduodenal infusion of normal saline at 2.8 mL/h. The lipid formulations were infused into the duodenum at 2.8 mL/h for 2 h after which, normal saline was infused at 2.8 mL/h for the remainder of the experiment. Lymph was continuously collected for up to 8 h into pre-weighed Eppendorf tubes containing 10 μL of 1,000 IU/mL heparin. The collection tubes were changed hourly and lymph flow was measured gravimetrically. Aliquots of hourly lymph samples were stored at −20° C. prior to assay.
Drug concentration in lymph is expressed as total drug and includes free drug and drug associated with different glycerides. Lymph samples are first treated with a lipase or other appropriate conditions to liberate free active agent prior to measurement of active agent levels in the lymph. Treatment with a lipase or other hydrolysis conditions liberates free active agent from any corresponding re-esterified glycerides. Porcine pancreatic lipase is appropriate for this purpose. Alternatively, hydrolysis with 0.5 M NaOH may be used. For MPA “phenol” prodrugs (i.e. prodrugs linked to the triglyceride at the aromatic —OH group of MPA), hydrolysis was performed with 0.5 M NaOH except for the lymph samples collected from 3 rats in the group of compound I-20 (MPA-O-C12α′βMe-TG), which were hydrolyzed by porcine pancreatic lipase.
Transport of compounds into lymph during each hourly collection period was calculated from the product of the volume of lymph collected and the measured concentrations in lymph. For fluorescently-labelled compounds such as a BDP-conjugate, the concentrations of total compound may be measured by fluorescence spectroscopy without hydrolysis.
The results of the lymphatic transport assays are summarized in Table 2, below, and FIGS. 1-19. Table 2 summarizes lymphatic transport of total MPA related compound (% of administered dose) following intraduodenal infusion to anaesthetised, mesenteric lymph-duct cannulated rats. […]

Question: Which “Cumulative lymphatic transport % dose (Mean ± SD, or Range if n = 2)” value does the source give for `CCCCCCCCCCCCCCCC(=O)OCC(COC(=O)CCCCCCCCCCCCCCC)OC(=O)CCCCCCCCCCCOC(=O)CC/C(C)=C/Cc1c(O)c2c(c(C)c1OC)COC2=O` [I-37, (E)-2-((12-((6-(4-hydroxy-6-methoxy-7-methyl-3-oxo-1,3-dihydroisobenzofuran-5-yl)-4-methylhex-4-enoyl)oxy)dodecanoyl)oxy)propane-1,3-diyl dipalmitate] here?
Answer: The value was “A (greater than 10% (>10%))”.

Question: For `CCCCCCCCCCCCCCCC(=O)OCC(COC(=O)CCCCCCCCCCCCCCC)OC(=O)CCCCCCCCCCCCCCCCCOC(=O)CC/C(C)=C/Cc1c(O)c2c(c(C)c1OC)COC2=O` [I-38, (E)-2-((18-((6-(4-hydroxy-6-methoxy-7-methyl-3-oxo-1,3-dihydroisobenzofuran-5-yl)-4-methylhex-4-enoyl)oxy)octadecanoyl)oxy)propane-1,3-diyl dipalmitate], which “Cumulative lymphatic transport % dose (Mean ± SD, or Range if n = 2)” value is on record?
Answer: The value was “B (between 1% and 10% (1%-10%))”.

same assay, conditions: total MPA related compound, intraduodenal infusion, anesthetised mesenteric lymph-duct cannulated rats; class symbols

Question: For `CCCCCCCCCCCCCCCC(=O)OCC(COC(=O)CCCCCCCCCCCCCCC)OC(=O)CC(C)CCCC(=O)Oc1c(C/C=C(\C)CCC(=O)OC)c(OC)c(C)c2c1C(=O)OC2` (centres unmarked) [I-16, MPA-(O—C10bMe-2-TG)-OMe], which “Cumulative lymphatic transport % dose (Mean ± SD, or Range if n = 2)” value is on record?
Answer: Its value is “A (greater than 10% (>10%))”.

Question: Which “Cumulative lymphatic transport % dose (Mean ± SD, or Range if n = 2)” value does the source give for `CCCCCCCCCCCCCCCC(=O)OCC(COC(=O)CCCCCCCCCCCCCCC)OC(=O)CCC(=O)Oc1c(C/C=C(\C)CCC(=O)OC)c(OC)c(C)c2c1C(=O)OC2` [I-17] here?
Answer: The value was “C (less than 1% and greater than 0.24% (<1% and >0.24%))”.

Question: With `CCCCCCCCCCCCCCCC(=O)OCC(COC(=O)CCCCCCCCCCCCCCC)OC(=O)CCCCC(=O)Oc1c(C/C=C(\C)CCC(=O)OC)c(OC)c(C)c2c1C(=O)OC2` [I-18] as the molecule, how does the “Cumulative lymphatic transport % dose (Mean ± SD, or Range if n = 2)” value read?
Answer: The value was “B (between 1% and 10% (1%-10%))”.

Question: With `CCCCCCCCCCCCCCCC(=O)OCC(COC(=O)CCCCCCCCCCCCCCC)OC(=O)CC(C)CCCCCCCC(C)C(=O)OCOC(=O)Oc1c(C/C=C(\C)CCC(=O)OC)c(OC)c(C)c2c1C(=O)OC2` (centres unmarked) [I-21, (E)-12-(1,3-Bis(palmitoyloxy)propan-2-yl) 1-(((((6-methoxy-5-(6-methoxy-3-methyl-6-oxohex-2-en-1-yl)-7-methyl-3-oxo-1,3-dihydroisobenzofuran-4-yl)oxy)carbonyl)oxy)methyl) 2,10-dimethyldodecanedioate] as the molecule, how does the “Cumulative lymphatic transport % dose (Mean ± SD, or Range if n = 2)” value read?
Answer: The value was “B (between 1% and 10% (1%-10%))”.

Question: Which “Cumulative lymphatic transport % dose (Mean ± SD, or Range if n = 2)” value does the source give for `CCCCCCCCCCCCCCCC(=O)OCC(COC(=O)CCCCCCCCCCCCCCC)OCCCCOC(=O)CC/C(C)=C/Cc1c(O)c2c(c(C)c1OC)COC2=O` [I-25, (E)-2-(4-((6-(4-hydroxy-6-methoxy-7-methyl-3-oxo-1,3-dihydroisobenzofuran-5-yl)-4-methylhex-4-enoyl)oxy)butoxy)propane-1,3-diyl dipalmitate] here?
Answer: The value was “C (less than 1% and greater than 0.24% (<1% and >0.24%))”.

Question: For `CCCCCCCCCCCCCCCC(=O)OCC(COC(=O)CCCCCCCCCCCCCCC)OCCCCCCOC(=O)CC/C(C)=C/Cc1c(O)c2c(c(C)c1OC)COC2=O` [I-26, (E)-2-((6-((6-(4-hydroxy-6-methoxy-7-methyl-3-oxo-1,3-dihydroisobenzofuran-5-yl)-4-methylhex-4-enoyl)oxy)hexyl)oxy)propane-1,3-diyl dipalmitate], which “Cumulative lymphatic transport % dose (Mean ± SD, or Range if n = 2)” value is on record?
Answer: The value was “C (less than 1% and greater than 0.24% (<1% and >0.24%))”.

Question: For `CCCCCCCCCCCCCCCC(=O)OCC(COC(=O)CCCCCCCCCCCCCCC)OC(=O)OCCCOC(=O)CC/C(C)=C/Cc1c(O)c2c(c(C)c1OC)COC2=O` [I-27, (E)-2-(((3-((6-(4-hydroxy-6-methoxy-7-methyl-3-oxo-1,3-dihydroisobenzofuran-5-yl)-4-methylhex-4-enoyl)oxy)propoxy)carbonyl)oxy)propane-1,3-diyl dipalmitate], which “Cumulative lymphatic transport % dose (Mean ± SD, or Range if n = 2)” value is on record?
Answer: The value was “B (between 1% and 10% (1%-10%))”.

Question: For `CCCCCCCCCCCCCCCC(=O)OCC(COC(=O)CCCCCCCCCCCCCCC)OC(=O)CCc1ccc(OC(=O)CC/C(C)=C/Cc2c(O)c3c(c(C)c2OC)COC3=O)cc1` [I-28, (E)-2-((3-(4-((6-(4-hydroxy-6-methoxy-7-methyl-3-oxo-1,3-dihydroisobenzofuran-5-yl)-4-methylhex-4-enoyl)oxy)phenyl)propanoyl)oxy)propane-1,3-diyl dipalmitate], which “Cumulative lymphatic transport % dose (Mean ± SD, or Range if n = 2)” value is on record?
Answer: The value was “B (between 1% and 10% (1%-10%))”.

Question: For `CCCCCCCCCCCCCCCC(=O)OCC(COC(=O)CCCCCCCCCCCCCCC)OC(=O)CCCCCCCCCCC(=O)Oc1c(C/C=C(\C)CCC(=O)OC)c(OC)c(C)c2c1C(=O)OC2` [I-30, (E)-1-(1,3-bis(palmitoyloxy)propan-2-yl) 12-(6-methoxy-5-(6-methoxy-3-methyl-6-oxohex-2-en-1-yl)-7-methyl-3-oxo-1,3-dihydroisobenzofuran-4-yl) dodecanedioate], which “Cumulative lymphatic transport % dose (Mean ± SD, or Range if n = 2)” value is on record?
Answer: Its value is “A (greater than 10% (>10%))”.

Question: Which “Cumulative lymphatic transport % dose (Mean ± SD, or Range if n = 2)” value does the source give for `CCCCCCCCCCCCCCCC(=O)OCC(COC(=O)CCCCCCCCCCCCCCC)OC(=O)CC(C)CCCCCCCCCCCC(=O)Oc1c(C/C=C(\C)CCC(=O)OC)c(OC)c(C)c2c1C(=O)OC2` (centres unmarked) [I-31, (E)-1-(1,3-bis(palmitoyloxy)propan-2-yl) 15-(6-methoxy-5-(6-methoxy-3-methyl-6-oxohex-2-en-1-yl)-7-methyl-3-oxo-1,3-dihydroisobenzofuran-4-yl) 3-methylpentadecanedioate] here?
Answer: The value was “A (greater than 10% (>10%))”.

Question: With `CCCCCCCCCCCCCCCC(=O)OCC(COC(=O)CCCCCCCCCCCCCCC)OC(=O)CC(C)CCCCCCCC(C)C(=O)Oc1c(C/C=C(\C)CCC(=O)OCCN2CCOCC2)c(OC)c(C)c2c1C(=O)OC2` (centres unmarked) [I-32, (E)-12-(1,3-bis(palmitoyloxy)propan-2-yl) 1-(6-methoxy-7-methyl-5-(3-methyl-6-(2-morpholinoethoxy)-6-oxohex-2-en-1-yl)-3-oxo-1,3-dihydroisobenzofuran-4-yl) 2,10-dimethyldodecanedioate] as the molecule, how does the “Cumulative lymphatic transport % dose (Mean ± SD, or Range if n = 2)” value read?
Answer: Its value is “A (greater than 10% (>10%))”.

Question: For `CCCCCCCCCCCCCCCC(=O)OCC(COC(=O)CCCCCCCCCCCCCCC)OC(=O)CCCCCCOC(=O)CC/C(C)=C/Cc1c(O)c2c(c(C)c1OC)COC2=O` [I-36, (E)-2-((7-((6-(4-hydroxy-6-methoxy-7-methyl-3-oxo-1,3-dihydroisobenzofuran-5-yl)-4-methylhex-4-enoyl)oxy)heptanoyl)oxy)propane-1,3-diyl dipalmitate], which “Cumulative lymphatic transport % dose (Mean ± SD, or Range if n = 2)” value is on record?
Answer: Its value is “B (between 1% and 10% (1%-10%))”.

Question: Which “Cumulative lymphatic transport % dose (Mean ± SD, or Range if n = 2)” value does the source give for `CCCCCCCCCCCCCCCC(=O)OCC(COP(=O)(O)OCC[N+](C)(C)C)OC(=O)CC/C(C)=C/Cc1c(O)c2c(c(C)c1OC)COC2=O` (centres unmarked) [I-39] here?
Answer: Its value is “C (less than 1% and greater than 0.24% (<1% and >0.24%))”.

Question: With `CCCCCCCCCCCCCCCC(=O)OCC(COC(=O)CCCCCCCCCCCCCCC)OC(=O)C(C)CCCCCCCCC(C)C(=O)OCOc1c(C/C=C(\C)CCC(=O)OC)c(OC)c(C)c2c1C(=O)OC2` (centres unmarked) [I-41] as the molecule, how does the “Cumulative lymphatic transport % dose (Mean ± SD, or Range if n = 2)” value read?
Answer: The value was “A (greater than 10% (>10%))”.

Question: For `CCCC(=O)OCC(COC(=O)CCC)OC(=O)CC(C)CCCCCCCCCCCCOC(=O)CC/C(C)=C/Cc1c(O)c2c(c(C)c1OC)COC2=O` (centres unmarked) [I-43], which “Cumulative lymphatic transport % dose (Mean ± SD, or Range if n = 2)” value is on record?
Answer: The value was “A (greater than 10% (>10%))”.

Reference: US11938137B2, “Lipid prodrugs of mycophenolic acid and uses thereof” (PureTech LYT, Inc., priority 2017, dated 2024)
